Laboratory results published in ChEMBL document CHEMBL1122312, “Synthesis and 5-lipoxygenase inhibitory activities of eicosanoid compounds” (J Med Chem, 1983).

Tested on: Arachidonate 5-lipoxygenase (Cavia porcellus)
Test: Inhibitory activity against 5-lipoxygenase at a dose of 0.1 mM

inhibition [%] | SMILES
86 | CCCCC/C=C\C\C=C/C=C/C=C/C1CC1CCCCC(=O)O (stereo not given)
78 | CCCCC/C=C\C\C=C/C=C/C=C/[C@@H]1O[C@H]1CCCC(=O)O
98 | CCCCC/C=C\C\C=C/C=C/C=C/C1CC1CCCC(=O)O (stereo not given)
5 | CCCCC/C=C\C/C=C\C/C=C\CC1CC1CCCC(=O)O (stereo not given)
47 | CCCCC/C=C\C/C=C\C/C=C\C=C\C(CO)CCCC(=O)O (stereo not given)

The remaining lines, values behind:

SMILES | inhibition [%]
CCCCC/C=C\C/C=C\C/C=C\C=C\C(=O)CCCC(=O)OC | 93
CCCCCCCCCCCCCCC1CC1CCCC(=O)O (stereo in doubt; 25) | 1
CCCCCCCCCCCCCCC1CC1CCCC(=O)O (stereo in doubt; 23) | 49
CCCCC/C=C\C\C=C/C=C/C=C/C1SC1CCCC(=O)OC (stereo not given) | 60
CCCCC/C=C\C/C=C\C/C=C\C1(/C=C\CCCC(=O)O)CC1 | 34
